Consider 25 substances from the OligoGym collection.

HELM strings list units from the 5' end as sugar, base in round brackets, then linkage (d deoxyribose, r ribose, m 2'-O-methyl, p phosphodiester). Strings are as the collection lists them; they lack the last nucleoside at the 3' end of the tested compound. [moe] = 2'-O-(2-methoxyethyl) (MOE); [sp] = phosphorothioate linkage; [m5C] = 5-methylcytosine

This series concerns the target UBE3A-ATS. The series is described as follows: mouse, dose not given. As to conditions: ASO.
“RNA1{[moe](A)[sp].[moe]([m5C])p.[moe](A)p.[moe](T)p.[moe](A)p.d([m5C])[sp].d(T)[sp].d(T)[sp].d(G)[sp].d(G)[sp].d(T)[sp].d(T)[sp].d(G)[sp].d([m5C])[sp].d(A)[sp].[moe](G)p.[moe](A)p.[moe]([m5C])[sp].[moe](G)}$$$$ (last 3' nucleoside missing)” gave a 3 h FOB score of 4.8 score 0-7.
In the case of “RNA1{[moe](A)[sp].[moe](T)p.[moe](G)p.[moe](T)p.[moe](G)p.d(G)[sp].d(G)[sp].d([m5C])[sp].d([m5C])[sp].d(T)[sp].d([m5C])[sp].d(T)[sp].d(A)[sp].d(T)[sp].d(T)[sp].[moe](A)p.[moe](A)p.[moe](G)[sp].[moe](A)}$$$$ (last 3' nucleoside missing)”, the 3 h FOB score stood at 0.7 score 0-7.
“RNA1{[moe]([m5C])[sp].[moe](A)p.[moe]([m5C])p.[moe]([m5C])p.[moe](T)p.d(A)[sp].d(G)[sp].d(G)[sp].d([m5C])[sp].d(T)[sp].d(G)[sp].d(G)[sp].d(G)[sp].d([m5C])[sp].d([m5C])[sp].[moe](T)p.[moe]([m5C])p.[moe](A)[sp].[moe](G)}$$$$ (last 3' nucleoside missing)” returned a 3 h FOB score of 3.5 score 0-7.
With “RNA1{[moe](A)[sp].[moe](A)p.[moe]([m5C])p.[moe](T)p.[moe](T)p.d([m5C])[sp].d(A)[sp].d(T)[sp].d([m5C])[sp].d(A)[sp].d(A)[sp].d(T)[sp].d(A)[sp].d(T)[sp].d(T)[sp].[moe](T)p.[moe]([m5C])p.[moe]([m5C])[sp].[moe]([m5C])}$$$$ (last 3' nucleoside missing)” the figure was 1 score 0-7; with “RNA1{[moe](T)[sp].[moe](G)p.[moe](T)p.[moe](G)p.d(T)[sp].d(T)[sp].d(T)[sp].d(T)[sp].d(T)[sp].d([m5C])[sp].d([m5C])[sp].d(A)[sp].d(T)[sp].d(T)[sp].[moe](T)p.[moe](T)p.[moe](T)p.[moe]([m5C])[sp].[moe](T)}$$$$ (last 3' nucleoside missing)”, 1 score 0-7; with “RNA1{[moe](G)[sp].[moe](A)p.[moe](G)p.[moe]([m5C])p.[moe](T)[sp].d(A)[sp].d(T)[sp].d([m5C])[sp].d(T)[sp].d(G)[sp].d(T)[sp].d(A)[sp].d([m5C])[sp].[moe](A)p.[moe](A)p.[moe](A)[sp].[moe](A)}$$$$ (last 3' nucleoside missing)”, 6 score 0-7.
In turn, “RNA1{[moe](A)[sp].[moe](A)[sp].[moe](G)[sp].[moe](G)[sp].[moe](G)[sp].d(T)[sp].d(A)[sp].d(A)[sp].d(T)[sp].d(A)[sp].d([m5C])[sp].d(G)[sp].d(G)[sp].d(A)[sp].d([m5C])[sp].[moe]([m5C])[sp].[moe](T)[sp].[moe]([m5C])[sp].[moe](A)}$$$$ (last 3' nucleoside missing)” yielded a 3 h FOB score of 6.5 score 0-7.
With “RNA1{[moe]([m5C])[sp].[moe](T)p.[moe](G)p.[moe]([m5C])p.d(T)[sp].d(T)[sp].d([m5C])[sp].d(A)[sp].d([m5C])[sp].d([m5C])[sp].d(A)[sp].d(T)[sp].d(T)[sp].d(T)[sp].[moe](T)p.[moe](G)p.[moe](A)p.[moe]([m5C])[sp].[moe]([m5C])}$$$$ (last 3' nucleoside missing)” the figure was 0 score 0-7; with “RNA1{[moe]([m5C])[sp].[moe]([m5C])p.[moe](A)p.[moe](T)p.[moe](T)p.d([m5C])[sp].d(A)[sp].d(G)[sp].d([m5C])[sp].d(A)[sp].d([m5C])[sp].d(T)[sp].d(T)[sp].d(A)[sp].d(G)[sp].[moe](G)p.[moe](T)p.[moe](A)[sp].[moe](G)}$$$$ (last 3' nucleoside missing)”, 3.7 score 0-7.
Then “RNA1{[moe]([m5C])[sp].[moe]([m5C])p.[moe](A)p.[moe](G)p.[moe](T)p.d(T)[sp].d(T)[sp].d(T)[sp].d([m5C])[sp].d(G)[sp].d([m5C])[sp].d([m5C])[sp].d([m5C])[sp].d(G)[sp].d(T)[sp].[moe](T)p.[moe](A)p.[moe]([m5C])[sp].[moe]([m5C])}$$$$ (last 3' nucleoside missing)”, with 4.5 score 0-7.
With “RNA1{[moe](G)[sp].[moe](A)p.[moe](G)p.[moe]([m5C])p.[moe](A)p.d(T)[sp].d(T)[sp].d(G)[sp].d(G)[sp].d([m5C])[sp].d(T)[sp].d(T)[sp].d([m5C])[sp].d(A)[sp].d(T)[sp].[moe](A)p.[moe](T)p.[moe](T)[sp].[moe](T)}$$$$ (last 3' nucleoside missing)” the figure was 1 score 0-7.
“RNA1{[moe](T)[sp].[moe](T)p.[moe]([m5C])p.[moe](T)p.[moe](G)p.d(G)[sp].d(A)[sp].d(A)[sp].d(T)[sp].d([m5C])[sp].d(T)[sp].d(T)[sp].d(G)[sp].d(T)[sp].d(A)[sp].[moe](G)p.[moe](A)p.[moe](G)[sp].[moe](G)}$$$$ (last 3' nucleoside missing)” showed a 3 h FOB score of 3 score 0-7.
“RNA1{[moe](G)[sp].[moe]([m5C])p.[moe](T)p.[moe](T)p.d([m5C])[sp].d(A)[sp].d([m5C])[sp].d([m5C])[sp].d(A)[sp].d(T)[sp].d(T)[sp].d(T)[sp].d(T)[sp].d(G)[sp].[moe](A)p.[moe]([m5C])p.[moe]([m5C])p.[moe](T)[sp].[moe](T)}$$$$ (last 3' nucleoside missing)” yielded a 3 h FOB score of 0 score 0-7.
Regarding “RNA1{[moe]([m5C])[sp].[moe](T)p.[moe](G)p.[moe]([m5C])p.[moe](T)p.d([m5C])[sp].d(A)[sp].d(G)[sp].d(T)[sp].d(T)[sp].d(A)[sp].d(G)[sp].d(G)[sp].d(T)[sp].d(T)[sp].[moe](A)p.[moe](G)p.[moe](T)[sp].[moe](G)}$$$$ (last 3' nucleoside missing)”, the 3 h FOB score amounted to 3.3 score 0-7.
“RNA1{[moe](T)[sp].[moe]([m5C])p.[moe](A)p.[moe](G)p.[moe](T)p.[moe](T)[sp].d(A)[sp].d(G)[sp].d(G)[sp].d(T)[sp].d(T)[sp].d(A)[sp].d(G)[sp].d(T)[sp].[moe](G)p.[moe]([m5C])[sp].[moe](A)}$$$$ (last 3' nucleoside missing)”: the 3 h FOB score is 3 score 0-7.
With “RNA1{[moe](G)[sp].[moe](T)p.[moe](G)p.[moe]([m5C])p.[moe](A)p.d(T)[sp].d(A)[sp].d([m5C])[sp].d([m5C])[sp].d([m5C])[sp].d(A)[sp].d(G)[sp].d(G)[sp].d(G)[sp].d(T)[sp].[moe](A)p.[moe](G)p.[moe](G)[sp].[moe](A)}$$$$ (last 3' nucleoside missing)” the figure was 1.2 score 0-7.
“RNA1{[moe]([m5C])[sp].[moe](G)p.[moe](T)p.[moe](A)p.[moe](T)p.d(T)[sp].d(G)[sp].d(G)[sp].d(A)[sp].d([m5C])[sp].d([m5C])[sp].d(T)[sp].d(T)[sp].d(T)[sp].d([m5C])[sp].[moe](A)p.[moe](A)p.[moe](T)[sp].[moe](G)}$$$$ (last 3' nucleoside missing)”: the 3 h FOB score was 3.5 score 0-7.
“RNA1{[moe](G)[sp].[moe](G)p.[moe](T)p.[moe](T)p.[moe](T)p.d(A)[sp].d(G)[sp].d(G)[sp].d(T)[sp].d([m5C])[sp].d(A)[sp].d(A)[sp].d([m5C])[sp].d([m5C])[sp].d(A)[sp].[moe](A)p.[moe](T)p.[moe](T)[sp].[moe](T)}$$$$ (last 3' nucleoside missing)”: the 3 h FOB score is 6 score 0-7.
In turn, “RNA1{[moe]([m5C])[sp].[moe](T)p.[moe](T)p.[moe]([m5C])p.[moe](A)p.d([m5C])[sp].d([m5C])[sp].d(A)[sp].d(T)[sp].d(T)[sp].d(T)[sp].d(T)[sp].d(G)[sp].d(A)[sp].d([m5C])[sp].[moe]([m5C])p.[moe](T)p.[moe](T)[sp].[moe]([m5C])}$$$$ (last 3' nucleoside missing)” registered a 3 h FOB score of 1 score 0-7.
Then “RNA1{[moe](A)[sp].[moe](A)p.[moe](A)p.[moe](T)p.[moe]([m5C])p.d([m5C])[sp].d(A)[sp].d(T)[sp].d(T)[sp].d(T)[sp].d(G)[sp].d(T)[sp].d([m5C])[sp].d([m5C])[sp].d(A)[sp].[moe](G)p.[moe](T)p.[moe]([m5C])[sp].[moe](T)}$$$$ (last 3' nucleoside missing)”, with 4.2 score 0-7.
The substance “RNA1{[moe](G)[sp].[moe]([m5C])p.[moe](T)p.[moe](T)p.[moe](T)p.d(A)[sp].d(G)[sp].d(T)[sp].d(A)[sp].d(T)[sp].d(G)[sp].d(T)[sp].d([m5C])[sp].d(G)[sp].d(A)[sp].[moe](G)p.[moe](A)p.[moe](A)[sp].[moe]([m5C])}$$$$ (last 3' nucleoside missing)” came in with a 3 h FOB score of 6 score 0-7.
For the substance “RNA1{[moe]([m5C])[sp].[moe](A)p.[moe](T)p.[moe](A)p.[moe](T)p.d(G)[sp].d(A)[sp].d(A)[sp].d(G)[sp].d([m5C])[sp].d(T)[sp].d(A)[sp].d(T)[sp].d(A)[sp].d(G)[sp].[moe](G)p.[moe](T)p.[moe](A)[sp].[moe]([m5C])}$$$$ (last 3' nucleoside missing)”, the 3 h FOB score stood at 1 score 0-7.
With “RNA1{[moe](G)[sp].[moe](G)p.[moe](G)p.[moe]([m5C])p.[moe](A)p.d([m5C])[sp].d(A)[sp].d(G)[sp].d(T)[sp].d(A)[sp].d(G)[sp].d(T)[sp].d(G)[sp].d(G)[sp].d(T)[sp].[moe](A)p.[moe](T)p.[moe]([m5C])[sp].[moe](A)}$$$$ (last 3' nucleoside missing)” the figure was 5.2 score 0-7; with “RNA1{[moe]([m5C])[sp].[moe](A)p.[moe](G)p.[moe](A)p.[moe]([m5C])p.d(T)[sp].d(T)[sp].d(A)[sp].d(T)[sp].d(T)[sp].d(G)[sp].d(A)[sp].d(G)[sp].d(G)[sp].d(A)[sp].[moe](T)p.[moe](G)p.[moe](G)[sp].[moe](T)}$$$$ (last 3' nucleoside missing)”, 5.7 score 0-7.
Then “RNA1{[moe](T)[sp].[moe](T)p.[moe](G)p.[moe](G)p.[moe](T)[sp].d([m5C])[sp].d(A)[sp].d(T)[sp].d([m5C])[sp].d(T)[sp].d([m5C])[sp].d(G)[sp].d(G)[sp].[moe](G)p.[moe](T)p.[moe](A)[sp].[moe](T)}$$$$ (last 3' nucleoside missing)”, with 5 score 0-7.
